Data on one substance can be found in US20080311214A1, “Polymerized solid lipid nanoparticles for oral or mucosal delivery of therapeutic proteins and peptides” (Transgene Biotek Limited, priority 2006, published 2008).

The test system of this test is STZ induced diabetic rats. Description: Reduction in serum glucose in STZ induced diabetic rats. It counts as in vivo, Wistar rats. Conditions: 10 IU/Kg insulin via subcutaneous route. Here is the method: Wistar rats (150-200 g) of both sexes were obtained from National Institute of Nutrition, Hyderabad. The animals were housed at a room temperature of 22±2° C. with 12 h light/dark cycle and 45-50% relative humidity. The animals had ad libitum access to a standard chow diet (Nutrilab, Banglore) and water except, wherever indicated. After randomization into various groups, the rats were acclimatized for a period of seven days in the new environment before initiation of the experiment.
Diabetes was induced by streptozotocin (STZ) injection. STZ in rats leads to the development of a clinical syndrome characterized by hyperglycemia, excessive osmotic diuresis, and loss of weight, which is similar to human diabetes. Moreover, the STZ-diabetic rat develops the usual chronic microvascular complications (nephropathy, peripheral and autonomic neuropathy) as observed in diabetic patients. Schaan, B. D., et al. Braz J Med Biol Res, 37:12:1895-1902 (2004).
Animals were made diabetic by injecting 50-60 mg/kg STZ dissolved in sodium citrate buffer, pH 4.5. Rats were fasted overnight before STZ administration. STZ-treated rats were used only when they developed elevated plasma glucose levels (confirmed by qualitative measurements of blood glucose >300 mg% 48 h after injection). Metabolic control was evaluated on the basis of plasma glucose and animal weight at the end of the experiments.
The diabetic rats were randomly divided in to six groups consisting of 4 animals. The lyophilized lectin coupled insulin loaded solid lipid nanoparticle formulations (F1, F2, F3 and F4), mentioned in the above examples, containing 10 IU/Kg of total insulin were administered orally to the respective groups after re-dispersing in the appropriate volume of physiological saline solution. The fifth group was treated with 10 IU/Kg of insulin via subcutaneous route and the sixth group was the control group. The control diabetic rats were not treated with insulin or any drug, but an equivalent volume of physiological saline solution was given orally.
The blood samples were collected at each scheduled time intervals. The plasma was separated by centrifugation and serum glucose levels were estimated as described in Bergmeyer, H. U. Methods of Enzymatic Analysis New York: Academic (1974). Plasma samples of all animals were stored at −80° C. until analyzed.

Consider insulin [Unencapsulated Insulin], for which the “Mean % Reduction in serum Glucose Levels” value is on record as 8.2 ± 2.3% (2.0 hrs); 15.1 ± 1.2% (3.0 hrs); 23.2 ± 3.2% (4.0 hrs); 36.2 ± 1.2% (5.0 hrs); 12.1 ± 4.3% (6.0 hrs); 19.2 ± 3.3% (8.0 hrs). Further, the “Mean % Reduction in serum Glucose Levels” value reads like this: (10.0 hrs) 25.1 ± 3.2%; (12.0 hrs) 29.2 ± 1.2%.
